Laboratory results from patent publication US20170190671A1, “BIS(ARYL)CATECHOL DERIVATIVES AS HERBICIDES” (E I DU PONT DE NEMOURS AND COMPANY, priority 2014, published 2017).

What was measured:
Format in all cases: in vivo
[1] = test system: pigweed (Amaranthus retroflexus); assay: Test C preemergence; settings: Amaranthus retroflexus, pre-emergence, 336 h, preemergence, scale 0 to 100, read-out: Plant response rating, Pigweed
In short: (§1)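 Greenhouse test, preemergence on seeded soil or postemergence on 1- to 4-leaf plants. Response is a visual 0-100 rating versus controls, taken 13-15 days after treatment.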

[2] = test system: morningglory (Ipomoea coccinea); assay: Test C preemergence; settings: Ipomoea, pre-emergence, 336 h, preemergence, scale 0 to 100, read-out: Plant response rating, Morningglory
In short: as §1

[3] = test system: johnsongrass (Sorghum halepense); assay: Test C preemergence; settings: Sorghum halepense, pre-emergence, 336 h, preemergence, scale 0 to 100, read-out: Plant response rating, Johnsongrass
In short: as §1

[4] = test system: winter wheat (Triticum aestivum); assay: Test C postemergence; settings: Triticum aestivum, post-emergence, 336 h, Postemergence, scale 0 to 100, read-out: Plant response rating, Wheat
In short: as §1

[5] = test system: yellow nutsedge (Cyperus esculentus); assay: Test C postemergence; settings: Cyperus, post-emergence, 336 h, Postemergence, scale 0 to 100, read-out: Plant response rating, Nutsedge, Yellow
In short: as §1

[6] = test system: barnyardgrass (Echinochloa crus-galli); assay: Test C postemergence; settings: Echinochloa crus-galli, post-emergence, Postemergence, scale 0 to 100, read-out: Plant response rating, Barnyardgrass
In short: as §1

[7] = test system: chickweed (common chickweed, Stellaria media); assay: Test C postemergence; settings: Stellaria media, post-emergence, Postemergence, scale 0 to 100, read-out: Plant response rating, Chickweed
In short: as §1

[8] = test system: velvetleaf (Abutilon theophrasti); assay: Test C postemergence; settings: Abutilon theophrasti, post-emergence, Postemergence, scale 0 to 100, read-out: Plant response rating, Velvetleaf
In short: as §1

[9] = test system: blackgrass (Alopecurus myosuroides); assay: Test C postemergence; settings: Alopecurus myosuroides, post-emergence, 336 h, Postemergence, scale 0 to 100, read-out: Plant response rating, Blackgrass
In short: as §1

[10] = test system: pigweed (Amaranthus retroflexus); assay: Test C postemergence; settings: Amaranthus retroflexus, post-emergence, 336 h, Postemergence, scale 0 to 100, read-out: Plant response rating, Pigweed
In short: as §1

[11] = test system: waterhemp (common waterhemp, Amaranthus rudis); assay: Test C postemergence; settings: Amaranthus tuberculatus, post-emergence, Postemergence, scale 0 to 100, read-out: Plant response rating, Waterhemp
In short: as §1

[12] = test system: morningglory (Ipomoea coccinea); assay: Test C postemergence; settings: Ipomoea, post-emergence, 336 h, Postemergence, scale 0 to 100, read-out: Plant response rating, Morningglory
In short: as §1

corn (Zea mays) = assay: Test C postemergence; settings: Zea mays, post-emergence, 336 h, Postemergence, scale 0 to 100
In short: as §1

[13] = test system: large (Lg) crabgrass (Digitaria sanguinalis); assay: Test C postemergence; settings: Digitaria sanguinalis, post-emergence, 336 h, Postemergence, scale 0 to 100, read-out: Plant response rating, Crabgrass, Large
In short: as §1

[14] = test system: johnsongrass (Sorghum halepense); assay: Test C postemergence; settings: Sorghum halepense, post-emergence, 336 h, Postemergence, scale 0 to 100, read-out: Plant response rating, Johnsongrass
In short: as §1

[15] = test system: giant foxtail (Setaria faberii); assay: Test C postemergence; settings: Setaria faberi, post-emergence, 336 h, Postemergence, scale 0 to 100, read-out: Plant response rating, Foxtail, Giant
In short: as §1

kochia (Kochia scoparia) = assay: Test C postemergence; settings: Bassia scoparia, post-emergence, Postemergence, scale 0 to 100, read-out: Plant response rating, Kochia
In short: as §1

[16] = test system: galium (catchweed bedstraw, Galium aparine); assay: Test C postemergence; settings: Galium, post-emergence, 336 h, Postemergence, scale 0 to 100, read-out: Plant response rating, Galium
In short: as §1

[17] = test system: lambsquarters (Chenopodium album); assay: Test C postemergence; settings: Chenopodium album, post-emergence, 336 h, Postemergence, scale 0 to 100, read-out: Plant response rating, Lambsquarters
In short: as §1

soybean (Glycine max) = assay: Test C postemergence; settings: Glycine max, post-emergence, Postemergence, scale 0 to 100, read-out: Plant response rating, Soybean
In short: as §1

[18] = test system: oilseed rape (Brassica napus); assay: Test C postemergence; settings: Brassica napus, post-emergence, Postemergence, scale 0 to 100, read-out: Plant response rating, Oilseed Rape
In short: as §1

[19] = test system: ragweed (common ragweed, Ambrosia elatior); assay: Test C postemergence; settings: Ambrosia artemisiifolia, post-emergence, 336 h, Postemergence, scale 0 to 100, read-out: Plant response rating, Ragweed
In short: as §1

Fc1cnc(Oc2c(F)cccc2Oc2ncc(Cl)cn2)nc1 [Compound 23]
pest or weed control at 31 g/ha ([1]; 31 g ai/ha): 100% | pest or weed control at 62 g/ha ([1]; 62 g ai/ha): 100% | pest or weed control at 125 g/ha ([1]; 125 g ai/ha): 100% | pest or weed control at 31 g/ha ([2]; 31 g ai/ha): 45% | pest or weed control at 62 g/ha ([2]; 62 g ai/ha): 85% | pest or weed control at 125 g/ha ([2]; 125 g ai/ha): 98% | pest or weed control at 31 g/ha ([3]; 31 g ai/ha): 40% | pest or weed control at 62 g/ha ([3]; 62 g ai/ha): 50% | pest or weed control at 125 g/ha ([3]; 125 g ai/ha): 90% | plant injury at 31 g/ha ([4]; 31 g ai/ha): 0% | plant injury at 62 g/ha ([4]; 62 g ai/ha): 0% | plant injury at 125 g/ha ([4]; 125 g ai/ha): 0% | plant injury at 250 g/ha ([4]; 250 g ai/ha): 5% | pest or weed control at 31 g/ha ([5]; 31 g ai/ha): 0% | pest or weed control at 62 g/ha ([5]; 62 g ai/ha): 0% | pest or weed control at 125 g/ha ([5]; 125 g ai/ha): 5% | pest or weed control at 250 g/ha ([5]; 250 g ai/ha): 5% | pest or weed control at 31 g/ha ([6]; 31 g ai/ha): 5% | pest or weed control at 62 g/ha ([6]; 62 g ai/ha): 10% | pest or weed control at 125 g/ha ([6]; 125 g ai/ha): 10% | pest or weed control at 250 g/ha ([6]; 250 g ai/ha): 25% | pest or weed control at 31 g/ha ([7]; 31 g ai/ha): 50% | pest or weed control at 62 g/ha ([7]; 62 g ai/ha): 50% | pest or weed control at 125 g/ha ([7]; 125 g ai/ha): 60% | pest or weed control at 250 g/ha ([7]; 250 g ai/ha): 60% | pest or weed control at 31 g/ha ([8]; 31 g ai/ha): 70% | pest or weed control at 62 g/ha ([8]; 62 g ai/ha): 70% | pest or weed control at 125 g/ha ([8]; 125 g ai/ha): 75% | pest or weed control at 250 g/ha ([8]; 250 g ai/ha): 90% | pest or weed control at 31 g/ha ([9]; 31 g ai/ha): 0% | pest or weed control at 62 g/ha ([9]; 62 g ai/ha): 5% | pest or weed control at 125 g/ha ([9]; 125 g ai/ha): 5% | pest or weed control at 250 g/ha ([9]; 250 g ai/ha): 30% | pest or weed control at 31 g/ha ([10]; 31 g ai/ha): 70% | pest or weed control at 62 g/ha ([10]; 62 g ai/ha): 80% | pest or weed control at 125 g/ha ([10]; 125 g ai/ha): 95% | pest or weed control at 250 g/ha ([10]; 250 g ai/ha): 100% | pest or weed control at 31 g/ha ([11]; 31 g ai/ha): 65% | pest or weed control at 62 g/ha ([11]; 62 g ai/ha): 75% | pest or weed control at 125 g/ha ([11]; 125 g ai/ha): 90% | pest or weed control at 250 g/ha ([11]; 250 g ai/ha): 98% | pest or weed control at 31 g/ha ([12]; 31 g ai/ha): 60% | pest or weed control at 62 g/ha ([12]; 62 g ai/ha): 75% | pest or weed control at 125 g/ha ([12]; 125 g ai/ha): 85% | pest or weed control at 250 g/ha ([12]; 250 g ai/ha): 95% | Corn plant response rating (crop injury, 0 = no effect, 100 = complete kill) at 31 g/ha (corn (Zea mays); 31 g ai/ha): 5% | Corn plant response rating (crop injury, 0 = no effect, 100 = complete kill) at 62 g/ha (corn (Zea mays); 62 g ai/ha): 5% | Corn plant response rating (crop injury, 0 = no effect, 100 = complete kill) at 125 g/ha (corn (Zea mays); 125 g ai/ha): 10% | Corn plant response rating (crop injury, 0 = no effect, 100 = complete kill) at 250 g/ha (corn (Zea mays); 250 g ai/ha): 10% | pest or weed control at 31 g/ha ([13]; 31 g ai/ha): 5% | pest or weed control at 62 g/ha ([13]; 62 g ai/ha): 5% | pest or weed control at 125 g/ha ([13]; 125 g ai/ha): 10% | pest or weed control at 250 g/ha ([13]; 250 g ai/ha): 30% | pest or weed control at 31 g/ha ([14]; 31 g ai/ha): 0% | pest or weed control at 62 g/ha ([14]; 62 g ai/ha): 0% | pest or weed control at 125 g/ha ([14]; 125 g ai/ha): 5% | pest or weed control at 250 g/ha ([14]; 250 g ai/ha): 5% | pest or weed control at 31 g/ha ([15]; 31 g ai/ha): 0% | pest or weed control at 62 g/ha ([15]; 62 g ai/ha): 5% | pest or weed control at 125 g/ha ([15]; 125 g ai/ha): 10% | pest or weed control at 250 g/ha ([15]; 250 g ai/ha): 35% | pest or weed control at 31 g/ha (kochia (Kochia scoparia); 31 g ai/ha): 5% | pest or weed control at 62 g/ha (kochia (Kochia scoparia); 62 g ai/ha): 70% | pest or weed control at 125 g/ha (kochia (Kochia scoparia); 125 g ai/ha): 80% | pest or weed control at 250 g/ha (kochia (Kochia scoparia); 250 g ai/ha): 90% | pest or weed control at 31 g/ha ([16]; 31 g ai/ha): 70% | pest or weed control at 62 g/ha ([16]; 62 g ai/ha): 90% | pest or weed control at 125 g/ha ([16]; 125 g ai/ha): 95% | pest or weed control at 250 g/ha ([16]; 250 g ai/ha): 95% | pest or weed control at 31 g/ha ([17]; 31 g ai/ha): 70% | pest or weed control at 62 g/ha ([17]; 62 g ai/ha): 80% | pest or weed control at 125 g/ha ([17]; 125 g ai/ha): 90% | pest or weed control at 250 g/ha ([17]; 250 g ai/ha): 95% | plant injury at 31 g/ha (soybean (Glycine max); 31 g ai/ha): 70% | plant injury at 62 g/ha (soybean (Glycine max); 62 g ai/ha): 65% | plant injury at 125 g/ha (soybean (Glycine max); 125 g ai/ha): 90% | plant injury at 250 g/ha (soybean (Glycine max); 250 g ai/ha): 95% | plant injury at 31 g/ha ([18]; 31 g ai/ha): 10% | plant injury at 62 g/ha ([18]; 62 g ai/ha): 30% | plant injury at 125 g/ha ([18]; 125 g ai/ha): 50% | plant injury at 250 g/ha ([18]; 250 g ai/ha): 45% | pest or weed control at 31 g/ha ([19]; 31 g ai/ha): 60% | pest or weed control at 62 g/ha ([19]; 62 g ai/ha): 70% | pest or weed control at 125 g/ha ([19]; 125 g ai/ha): 75% | pest or weed control at 250 g/ha ([19]; 250 g ai/ha): 100%
